# Measured values: US7419965B2, “Nucleotide lipid ester derivatives” (Heidelberg Pharma AG, priority 2003, dated 2008)
# Tests used:
# Parameters in all cases: species or system nude mice
# [1] = test system: human colon carcinoma xenograft HCT-15; experiment: Antitumor activity in human colon carcinoma xenograft model (HCT-15) in vivo; conditions: for Tumor weight (median): ip once daily for 5 days from day 8, day 28; for Tumor inhibition: ip once daily for 5 days, day 28, vs vehicle control
# Procedure: The antitumor activity of the nucleotide conjugate and its corresponding nucleoside has been compared in the human colon carcinoma xenograft HCT-15 model in nude mice.
# Tumor bearing mice were randomized on day 7 after HCT-15 tumor cell inoculation and were distributed to treatment groups of 9 animals per group. Treatment was started on day 8. The animals were treated intraperitoneally (ip) once daily for 5 consecutive days with the nucleotide conjugate or the nucleoside. Dosages included 50 and 25% of the Maximum Tolerable Doses (MTD′s). Control animals were injected with the corresponding solvents (Vehicle 1 or 2). On day 28, the primary tumors were explanted and the tumor weights were determined.
# (§1) Tumor bearing mice were distributed to treatment groups of 9-10 animals per group. Treatment Treatment cycle(s)(one or two) were performed consisting of once daily intraperitoneal administrations for 5 consecutive days. Dosages were in the range of 6.25% and 100% of the Maximum Tolerated Doses (MTD's). Control animals were treated with solvent (vehicle) only, The percentage of tumor inhibition refers to the median tumor size of the vehicle treated control group and dose groups at the end of each experiment.
# [2] = test system: human ovarian carcinoma xenograft SKOV-3; experiment: Antitumor activity in human ovarian carcinoma xenograft model (SKOV-3) in vivo; conditions: for Tumor inhibition: end of treatment period (day 17), vs vehicle control; for Tumor volume (median): ip once daily day 6-10 and 13-17, end of treatment (day 17)
# Procedure: The antitumor activity of nucleotide conjugate and nucleoside has been compared in the human ovarian carcinoma xenograft SKOV-3 model in nude mice.
# Tumor bearing mice were randomized on day 6 after SKOV-3 tumor cell inoculation and were distributed to treatment groups of 9 animals per group. Treatment was started on day 6. The animals were treated intraperitoneally (ip) once daily on day 6-10 and 13-17 with nucleotide conjugate or nucleoside. Dosages ranged between 6.25 and 100% of the Maximum Tolerable Doses (MTD's). Control animals were treated with solvent (vehicle) only.
# as §1
# [3] = test system: human breast carcinoma xenograft MDA-MB-231; experiment: Antitumor activity in human breast carcinoma xenograft model (MDA-MB-231) in vivo; conditions: for Tumor inhibition: day 49, vs vehicle control; for Tumor volume (median): orally once daily days 21-25 and 28-32, day 49
# Procedure: The antitumor activity of nucleotide conjugate and its corresponding nucleoside has been compared in the human breast carcinoma xenograft MDA-MB-231 model in nude mice.
# Tumor bearing mice were randomized on day 21 after MDA-MB-231 tumor cell inoculation and were distributed to treatment groups of 9 animals per group. Treatment was started on day 21. At this time point the animals had well vascularized tumors of about 400 mg. The animals were treated orally once daily for 2 weeks with nucleotide conjugate and its corresponding nucleoside on days 21-25 and 28-32. Doses ranged from 6.25% to 50% of the Maximum Tolerable Doses (MTD's). Control animals were treated with the solvent (vehicle) only. […]
# [4] = test system: human prostate carcinoma xenograft PC-3; experiment: Antitumor activity in human prostate carcinoma xenograft model (PC-3) in vivo; conditions: for Tumor inhibition: day 52, vs vehicle control; for Tumor weight (median): ip once daily for 5 days from day 7, day 52
# Procedure: The antitumor activity of nucleoside conjugate and nucleoside has been compared in the human prostate carcinoma xenograft PC-3 model in nude mice.
# Tumor bearing mice were randomized on day 7 after PC-3 tumor cell inoculation and were distributed to treatment groups of n=10 animals per group. Treatment was started on day 7. The animals were treated intraperitoneally (ip) once daily for 5 consecutive days with nucleotide conjugate or nucleoside. Dosages included 100 and 50% of the Maximum Tolerable Doses (MTD's). Control animals were treated with the corresponding solvent (vehicle) only. On day 52, the primary tumors were explanted and the tumor weights were determined.
# as §1
# [5] = test system: human cervix carcinoma xenograft KB-3-1; experiment: Antitumor activity in human cervix carcinoma xenograft model (KB-3-1) in vivo; conditions: for Tumor inhibition: day 29, vs vehicle control; for Tumor volume (median): ip once daily days 8-12, day 29
# Procedure: The antitumor activity of nucleotide conjugate and nucleoside has been compared in the human cervix carcinoma xenograft KB-3-1 model in nude mice.
# Tumor bearing mice were randomized on day 8 after KB-3-1 tumor cell inoculation and were distributed to treatment groups of 9 animals per group. Treatment was started on day 8. The animals were treated intraperitoneally (ip) once daily for 5 consecutive days (days 8-12) with nucleotide conjugate or nucleoside. Dosages included 100 and 50% of the Maximum Tolerable Doses (MTD's). Control animals were injected with solvent (Vehicle).
# as §1
# [6] = test system: human pancreatic carcinoma xenograft AspC1; experiment: Antitumor activity in human pancreatic carcinoma xenograft model (AspC1) in vivo; conditions: for Tumor inhibition: day 30, vs vehicle control; for Tumor weight (median): ip once daily day 6-10 and 20-23, day 30
# Procedure: The antitumor activity of nucleotide conjugate and nucleoside has been compared in the human pancreatic carcinoma xenograft AspC1 model in nude mice.
# Tumor bearing mice were randomized on day 6 after AspC1 tumor cell inoculation and were distributed to treatment groups of 10 animals per group. Treatment was started on day 6. The animals were treated intraperitoneally (ip) once daily on day 6-10 and 20-23 with nucleotide conjugate or nucleoside. Dosages included 100 and 50% of the Maximum Tolerable Doses (MTD's). Control animals were treated with solvent (vehicle) only.
# as §1
# [7] = 25% MTD (nucleoside 20, conjugate 63 mg/kg/injection)
# [8] = 50% MTD (nucleoside 40, conjugate 125 mg/kg/injection)
# [9] = HCT-15, Dose 50.00 % MTD as printed in summary table
# [10] = HCT-15, Dose 100.00 % MTD as printed in summary table
# [11] = 25% MTD (nucleoside 7.5, conjugate 18.8 mg/kg/injection)
# [12] = 50% MTD (nucleoside 15.0, conjugate 37.5 mg/kg/injection)
# [13] = 100% MTD (nucleoside 30.0, conjugate 75.0 mg/kg/injection)
# [14] = 6.25% MTD (nucleoside 2.5, conjugate 12.5 mg/kg)
# [15] = 12.50% MTD (nucleoside 5.0, conjugate 25.0 mg/kg)
# [16] = 25.00% MTD (nucleoside 10.0, conjugate 50.0 mg/kg)
# [17] = 50.00% MTD (nucleoside 20.0, conjugate 100.0 mg/kg)
# [18] = 50% MTD (nucleoside 20, conjugate 50 mg/kg/injection)
# [19] = 100% MTD (nucleoside 40, conjugate 100 mg/kg/injection)
smiles,measurement,setting,value
"Nc1nc(Cl)nc2c1ncn2[C@@H]1O[C@H](CO)[C@@H](O)[C@@H]1F [Nucleoside, 2-Chloro-9-(2′-deoxy-2′-fluoro-β-D arabinofuranosyl)adenine, reference compound]",Tumor weight (median),[1]; [7],431 mg
same,Tumor inhibition,[1]; [7],25%
same,Tumor weight (median),[1]; [8],329 mg
same,Tumor inhibition,[1]; [8],42%
same,Tumor inhibition (summary table),[1]; [9],25%
same,Tumor inhibition (summary table),[1]; [10],42%
same,Tumor inhibition,[2]; [11],37%
same,Tumor volume (median),[2]; [11],162 mm^3
same,Tumor inhibition,[2]; [12],58%
same,Tumor volume (median),[2]; [12],108 mm^3
same,Tumor inhibition,[2]; [13],51%
same,Tumor volume (median),[2]; [13],126 mm^3
same,Tumor inhibition,[3]; [14],46%
same,Tumor volume (median),[3]; [14],1862 mm^3
same,Tumor inhibition,[3]; [15],84%
same,Tumor volume (median),[3]; [15],550 mm^3
same,Tumor inhibition,[3]; [16],95%
same,Tumor volume (median),[3]; [16],172 mm^3
same,Tumor inhibition,[3]; [17],97%
same,Tumor volume (median),[3]; [17],108 mm^3
same,Tumor inhibition,[4]; [18],40%
same,Tumor weight (median),[4]; [18],303 mg
same,Tumor inhibition,[4]; [19],60%
same,Tumor weight (median),[4]; [19],202 mg
same,Tumor inhibition,[5]; [18],68%
same,Tumor volume (median),[5]; [18],1059 mm^3
same,Tumor inhibition,[5]; [19],49%
same,Tumor volume (median),[5]; [19],1705 mm^3
same,Tumor inhibition,[6]; [12],30%
same,Tumor weight (median),[6]; [12],160 mg
same,Tumor inhibition,[6]; [13],35%
same,Tumor weight (median),[6]; [13],150 mg
"CCCCCCCCCCCCSCC(COP(=O)(O)OC[C@H]1O[C@@H](n2cnc3c(N)nc(Cl)nc32)[C@@H](F)[C@@H]1O)OCCCCCCCCCC (stereo partly drawn) [Nucleotide conjugate, [2-Chloro-9-(2′-deoxy-2′-fluoro-β-D arabinofuranosyl)adenine]-5′-phosphoric acid-(3-dodecylmercapto-2-decyloxy)propyl ester]",Tumor weight (median),[1]; [7],257 mg
same,Tumor inhibition,[1]; [7],62%
same,Tumor weight (median),[1]; [8],16 mg
same,Tumor inhibition,[1]; [8],98%
same,Tumor inhibition (summary table),[1]; [9],62%
same,Tumor inhibition (summary table),[1]; [10],98%
same,Antitumor efficacy compared with the corresponding nucleoside,[1]; at both doses,significantly (p<0.01) higher
same,Activity relative to nucleoside (conclusion),"[1]; conclusion of summary, human colon carcinoma xenograft",Superior activity
same,Tumor inhibition,[2]; [11],44%
same,Tumor volume (median),[2]; [11],144 mm^3
same,Tumor inhibition,[2]; [12],58%
same,Tumor volume (median),[2]; [12],108 mm^3
same,Tumor inhibition,[2]; [13],75%
same,Tumor volume (median),[2]; [13],63 mm^3
same,Antitumor efficacy compared with the nucleoside,[2]; at MTD,significantly higher (p<0.01)
same,Activity relative to nucleoside (conclusion),"[2]; conclusion of summary, SKOV-3",Superior activity
same,Tumor inhibition,[3]; [14],63%
same,Tumor volume (median),[3]; [14],1267 mm^3
same,Tumor inhibition,[3]; [15],94%
same,Tumor volume (median),[3]; [15],196 mm^3
same,Tumor inhibition,[3]; [16],97%
same,Tumor volume (median),[3]; [16],108 mm^3
same,Tumor inhibition,[3]; [17],99%
same,Tumor volume (median),[3]; [17],51 mm^3
same,Antitumor efficacy compared with the corresponding nucleoside,[3]; at all doses,significantly (p <0.05) higher
same,Activity relative to nucleoside (conclusion),"[3]; conclusion of summary, MDA-MB-231",Superior activity
same,Tumor inhibition,[4]; [18],82%
same,Tumor weight (median),[4]; [18],92 mg
same,Tumor inhibition,[4]; [19],87%
same,Tumor weight (median),[4]; [19],64 mg
same,Antitumor efficacy compared with Nucleoside,[4]; at both doses,significantly higher (p<0.01)
same,Activity relative to nucleoside (conclusion),"[4]; conclusion of summary, PC-3",Superior activity
same,Tumor inhibition,[5]; [18],74%
same,Tumor volume (median),[5]; [18],877 mm^3
same,Tumor inhibition,[5]; [19],97%
same,Tumor volume (median),[5]; [19],104 mm^3
same,Antitumor efficacy compared with Nucleoside,[5]; at the MTD,significantly higher (p<0.01)
same,Activity relative to nucleoside (conclusion),"[5]; conclusion of summary, KB-3-1",Superior activity
same,Tumor inhibition,[6]; [12],65%
same,Tumor weight (median),[6]; [12],80 mg
same,Tumor inhibition,[6]; [13],96%
same,Tumor weight (median),[6]; [13],10 mg
same,Antitumor efficacy compared with Nucleoside,[6]; at both doses,significantly higher (p<0.01)
same,Activity relative to nucleoside (conclusion),"[6]; conclusion of summary, AspC1",Superior activity
